Laboratory results taken from patent EP0733364A1, “MEDICINAL COMPOSITION FOR CIRCULATORY ORGAN” (NIPPON SHINYAKU COMPANY, LIMITED, priority 1993, dated 1995).
Several values for one entry are separate records, joined by “and”; a condition that tells them apart may be missing. Identical values can stand only once.

Legend:
Format in all cases: in vivo, beagle dogs
[1] = system: fibrin clot; test: Fibrinolytic action: lysis of 125I-fibrin clot made from plasma obtained 48 hr after drug administration; details: for Fibrinolysis (%) : (24 hr after addition of Urokinase): N 4, mean S.E.
Method: The plasma obtained 48 hr after drug administration in Test Example 1 was used in this test.
To 0.35 ml of plasma was added 40 µl ^125I-fibrinogen (185 kBq/ml) and the mixture was dispensed to 3 test tubes, 0.1 ml per tube. To each of the test tubes was added 10 µl each of 100 µU/ml thrombin solution and 0.5 M calcium chloride solution and, after stirring, each tube was incubated at 37°C for 30 min to prepare a fibrin clot. Then, 2% albumin-saline containing 0, 50 or 100 U of urokinase was added to the tubes, 1 ml per tube. The tubes were incubated at 37°C and at 0, 3, 6, 9, 21 and 24 hr of incubation, 50µl of the supernatant was taken in a RIA tube and using a γ-counter (Packard Japan, A5424), the amount of the ^125I-fibrin degradated product was determined.

[2] = Observation for evaluation of diarrhea (stool property); parameters: key to stool property: -: normal stool; ±: slightly soft stool; +: soft stool; ++: mild diarrhea; +++: diarrhea; details: for stool property: one line per animal
Excerpt: In Test Example 1, the stool property was monitored every day and rated on the 5-point scale of -: normal, ±: slightly soft stool, +: soft stool, ++: mild diarrhea, +++: diarrheal.

[3] = system: α2-PI; test: Assay of α2-PI activity in plasma after oral administration; details: oral once a day for 3 days (0, 24, 48 hr), 116 mg/kg compound A as printed, Fig. 1
Method: The drugs were administered to groups of 4 beagle dogs (22-23 months old, body weights 9-11 kg) and the blood was serially sampled (-120, 0, 6, 24, 48, 72, 96, and 168 hr) for assay of α2-PI activity. One capsule of either compound A or compound B was administered orally once a day for 3 days (at 0, 24, and 48 hr) [116 mg/kg compound A or 300 mg/kg compound B (equimolar to compound A)]. Blood sampling was carried out by drawing 9 volumes of blood into a vacuum blood sampling tube containing 1 volume of 3.8% sodium citrate and, after gentle mixing, each blood sample was centrifuged (3,000 rpm x 10 min.) to separate the plasma. The plasma α2-PI activity was assayed with Test Team APL 2 Kit using the cleavage of the synthetic chromogenic substrate S-2251 as an indicator by plasmin.

stool property ([2]; Day 1, 300mg/kg oral once a day for 3 days, 300 mg/kg) | stool property ([2]; Day 3, 300mg/kg oral once a day for 3 days, 300 mg/kg) | stool property ([2]; Day 4, 300mg/kg oral once a day for 3 days, 300 mg/kg) | stool property ([2]; Day 7, 300mg/kg oral once a day for 3 days, 300 mg/kg) | stool property ([2]; Day 1, 116mg/kg oral once a day for 3 days, 116 mg/kg) | stool property ([2]; Day 3, 116mg/kg oral once a day for 3 days, 116 mg/kg) | stool property ([2]; Day 4, 116mg/kg oral once a day for 3 days, 116 mg/kg) | stool property ([2]; Day 7, 116mg/kg oral once a day for 3 days) | SMILES | Fibrinolysis (%) : (24 hr after addition of Urokinase) ([1]; Urokinase 0U, 300mg/kg) | Fibrinolysis (%) : (24 hr after addition of Urokinase) ([1]; Urokinase 50U, 300mg/kg) | Fibrinolysis (%) : (24 hr after addition of Urokinase) ([1]; Urokinase 100U, 300mg/kg) | fibrinolytic activity ([1]; urokinase addition level of 100 U) | diarrhea-inducing effect ([2]; summary of Table 2) | α2-PI activity [3] | Fibrinolysis (%) : (24 hr after addition of Urokinase) ([1]; Urokinase 0U, 116mg/kg) | Fibrinolysis (%) : (24 hr after addition of Urokinase) ([1]; Urokinase 50U, 116mg/kg) | Fibrinolysis (%) : (24 hr after addition of Urokinase) ([1]; Urokinase 100U, 116mg/kg)
+ and - and ± and +++ | +++ and ± (2×) and - | ± (2×) and - (2×) | ± and - (3×) |  |  |  |  | CCCC(=O)OCC1C(OC(=O)CCC)C(OC(=O)CCC)C(OC(=O)CCC)CN1C (centres unmarked) [Compound A, 2,3,4,5-tetra-O-butyryl-N-methyl-moranoline] | 143 ± 27% | 278 ± 31% | 342 ± 30% | significantly accelerated the fibrinolytic activity | less remarkable in diarrhea-inducing effect than compound B | decreased α2-PI activity significantly |  |  | 
 |  |  |  | +++ (2×) and ++ and + | +++ (3×) and + + | + (2×) and ± (2×) | - | CN1C[C@H](O)[C@@H](O)[C@H](O)[C@H]1CO [Compound B, N-methylmoranoline, reference compound] |  |  |  |  |  |  | 172 ± 56% | 213 ± 27% | 340 ± 49%
